Laboratory results as given in the supplement of paper PMC10307832.

Tests used:
Test in all cases: relative viability (nuclei count vs DMSO), 5 days (fraction); higher = more cells survive
[1] = compound: CC1=C(C(=NN1)C)CC2=C(C3=C(S2)N(C(=O)N(C3=O)C)CC(C)C)C(=O)N4C[C@@H](CO4)O + Nc1ncn([C@H]2C[C@H](O)[C@@H](CO)O2)c(=O)n1 [Decitabine] (partner 2 µM)
Outline: (§1)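 Values are medians from duplicate plates. Each reflects relative viability, defined as the nuclei count of treated wells over that of vehicle wells. Lung cancer cell lines in 1536-well plates were pin-tool dosed one day after seeding with one drug alone or with a fixed anchor-drug dose plus five library-drug doses (not always all listed) in √10 steps, then fixed, stained and imaged at 4× after 5 days.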

[2] = compound: CC1=C(C(=NN1)C)CC2=C(C3=C(S2)N(C(=O)N(C3=O)C)CC(C)C)C(=O)N4C[C@@H](CO4)O + N=C(N)NC(=N)NCCc1ccccc1 [Phenformin] (partner 250 µM)
Outline: as §1

[3] = compound: CC1=C(C(=NN1)C)CC2=C(C3=C(S2)N(C(=O)N(C3=O)C)CC(C)C)C(=O)N4C[C@@H](CO4)O + CC(=O)Nc1cccc(-n2c(=O)n(C3CC3)c(=O)c3c(Nc4ccc(I)cc4F)n(C)c(=O)c(C)c32)c1 [Trametinib] (partner 0.02 µM)
Outline: as §1

[4] = compound: Cc1ccccc1C(C(=O)NC1CCCCC1)N(C(=O)Cn1ccnc1C)c1cccc(F)c1 [IDH-C35] + CC1(C)CCC(c2ccc(Cl)cc2)=C(CN2CCN(c3ccc(C(=O)NS(=O)(=O)c4ccc(N[C@H](CCN5CCOCC5)CSc5ccccc5)c(S(=O)(=O)C(F)(F)F)c4)cc3)CC2)C1 [Navitoclax] (partner 0.5 µM)
Outline: as §1

Cell Line	relative viability ([1]; first compound 0.0025 µM)	relative viability ([1]; first compound 0.007906 µM)	relative viability ([1]; first compound 0.025 µM)	relative viability ([1]; first compound 0.07906 µM)	relative viability ([1]; first compound 0.25 µM)	relative viability ([2]; first compound 0.0025 µM)	relative viability ([2]; first compound 0.007906 µM)	relative viability ([2]; first compound 0.025 µM)	relative viability ([2]; first compound 0.07906 µM)	relative viability ([2]; first compound 0.25 µM)	relative viability ([3]; first compound 0.0025 µM)	relative viability ([3]; first compound 0.007906 µM)	relative viability ([3]; first compound 0.025 µM)	relative viability ([3]; first compound 0.07906 µM)	relative viability ([3]; first compound 0.25 µM)	relative viability ([4]; first compound 0.08 µM)	relative viability ([4]; first compound 0.253 µM)	relative viability ([4]; first compound 0.8 µM)	relative viability ([4]; first compound 2.53 µM)	relative viability ([4]; first compound 8 µM)
NCI-H522	0.658	0.655	0.472	0.498	0.599	0.551	0.686	0.376	0.327	0.265	0.77	0.768	0.701	0.606	0.657	–	–	–	–	–
HCC-15	0.707	0.621	0.692	0.662	0.781	0.486	0.49	0.46	0.482	0.518	0.411	0.365	0.378	0.407	0.415	0.69	0.692	0.708	0.632	0.606
A-427	0.592	0.576	0.623	0.605	0.604	0.301	0.264	0.24	0.375	0.349	0.748	0.754	0.809	0.754	0.763	0.975	0.975	0.904	0.949	0.952
NCI-H2228	–	–	–	–	–	0.366	0.377	0.327	0.403	0.247	0.788	0.584	0.578	0.662	0.577	0.915	1.18	1.29	0.875	0.706
NCI-H1734	0.561	0.516	0.533	0.451	0.503	0.349	0.218	0.168	0.164	0.156	0.666	0.757	0.675	0.62	0.665	0.9	0.849	0.827	0.796	0.791
PC-14	0.223	0.27	0.215	0.199	0.275	0.548	0.585	0.317	0.586	0.74	0.795	0.839	0.784	0.917	0.929	1.11	1.03	0.966	1.04	0.98
NCI-H1915	0.279	0.265	0.242	0.258	0.265	0.365	0.329	0.358	0.345	0.357	0.295	0.307	0.288	0.302	0.32	0.772	0.753	0.759	0.729	0.767
NCI-H1666	0.631	0.831	0.74	0.666	0.658	0.571	0.621	0.548	0.538	0.593	0.876	0.824	0.885	0.786	0.891	1.03	0.977	0.961	1.07	0.881
HCC-366	0.297	0.417	0.399	0.365	0.372	0.622	0.574	0.669	0.606	0.693	0.367	0.501	0.376	0.455	0.324	0.937	1.13	1.03	0.981	1.01
SK-MES-1	0.428	0.384	0.394	0.381	0.449	0.701	0.671	0.629	0.686	0.704	0.562	0.607	0.604	0.591	0.592	1.18	1.03	1.28	1.14	1.27
SW 1573	0.529	0.519	0.634	0.534	0.504	0.239	0.236	0.115	0.123	0.117	0.496	0.574	0.622	0.59	0.654	0.964	1.07	1.07	0.841	1.02
NCI-H661	0.521	0.623	0.546	0.542	0.58	0.286	0.304	0.27	0.22	0.277	0.624	0.59	0.505	0.583	0.56	–	–	–	–	–
PC-3 [JPC-3]	0.843	0.787	0.9	0.843	0.996	0.467	0.461	0.477	0.461	0.447	0.74	0.649	0.718	0.678	0.682	0.789	0.718	0.778	0.858	0.74
NCI-H1623	–	–	–	–	–	0.465	0.408	0.514	0.525	0.378	–	–	–	–	–	–	–	–	–	–
Calu-6	–	–	–	–	–	–	–	–	–	–	–	–	–	–	–	0.838	0.765	0.997	0.968	0.78
